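How tested: cells in 96-well plates exposed to compound for 48 hours at five concentrations. Here, GI50 denotes the concentration required for 50% inhibition of growth. TGI: total growth inhibition.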
How the values were obtained:
Test in all cases: NCI tumour cell line growth inhibition, 48 h
A498 renal = tested on: A498 renal
ACHN renal = tested on: ACHN renal
CCRF-CEM leukemia = tested on: CCRF-CEM leukemia
COLO 205 colon = tested on: COLO 205 colon
HOP-62 NSCLC = tested on: HOP-62 NSCLC
IGROV1 ovarian = tested on: IGROV1 ovarian
NCI-H226 lung = tested on: NCI-H226 lung
NCI-H23 lung = tested on: NCI-H23 lung
OVCAR-8 ovarian = tested on: OVCAR-8 ovarian
RPMI-8226 leukemia = tested on: RPMI-8226 leukemia
SK-MEL-2 melanoma = tested on: SK-MEL-2 melanoma
SNB-19 CNS = tested on: SNB-19 CNS
CAKI-1 renal = tested on: CAKI-1 renal
NCI-H522 lung = tested on: NCI-H522 lung

Row | Structure (SMILES) | TGI (A498 renal) | TGI (ACHN renal) | TGI (CCRF-CEM leukemia) | TGI (COLO 205 colon) | TGI (HOP-62 NSCLC) | TGI (IGROV1 ovarian) | TGI (NCI-H226 lung) | TGI (NCI-H23 lung) | TGI (OVCAR-8 ovarian) | TGI (RPMI-8226 leukemia) | TGI (SK-MEL-2 melanoma) | TGI (SNB-19 CNS) | TGI (CAKI-1 renal) | TGI (NCI-H522 lung) | GI50 (A498 renal) | GI50 (HOP-62 NSCLC) | GI50 (NCI-H226 lung)
1 | CCOC(=O)[C@@H]1OC(c2ccccc2)O[C@H]1C(=O)OCC | > 100 µM | > 100 µM | > 100 µM | > 100 µM | > 100 µM | > 100 µM | > 100 µM | > 100 µM | > 100 µM | > 100 µM | > 100 µM | > 100 µM |  |  |  |  | 
2 | COc1cc(OC)c2ssc3c(OC)cc(OC)c4ssc1c2-c43 | > 100 µM | > 100 µM | > 100 µM | > 100 µM | > 100 µM | > 100 µM | > 100 µM | > 100 µM | > 100 µM |  | > 100 µM | > 100 µM | > 100 µM | > 100 µM |  |  | 
3 | CC(C)(C)OC(=O)[C@@H]1CCC(=S)N1Cc1ccccc1 | > 100 µM | > 100 µM | > 100 µM | > 100 µM |  | > 100 µM | > 100 µM | > 100 µM | > 100 µM | > 100 µM | > 100 µM | > 100 µM | > 100 µM | > 100 µM |  |  | 
4 | O=C(/C=C/c1ccc(O)c(O)c1)OC1C[C@@](O)(C(=O)O)C[C@@H](O)[C@H]1OC(=O)/C=C/c1ccc(O)c(O)c1 (stereo partly drawn) | > 100 µM | > 100 µM | > 100 µM | > 100 µM | > 100 µM | > 100 µM | > 100 µM | > 100 µM | > 100 µM | > 100 µM | > 100 µM |  |  | > 100 µM |  |  | 
5 | O=C1c2sc(-c3ccc(F)cc3)cc2-n2cccc21 | 62.8 µM | > 100 µM | > 100 µM | > 100 µM | 37.3 µM | 38.3 µM | 82.2 µM |  | > 100 µM | > 100 µM | > 100 µM | 39.6 µM | 34.5 µM | > 100 µM |  |  | 
6 | C1=Nc2ccc(cc2)N=Cc2ccccc2OCc2cccc(n2)COc2ccccc21 | > 100 µM | > 100 µM | > 100 µM | > 100 µM | > 100 µM | > 100 µM | > 100 µM | > 100 µM | > 100 µM |  | > 100 µM | 75.1 µM | > 100 µM | > 100 µM |  |  | 
7 | CC(/C=C/C(=O)c1sc(-n2nc(-c3ccccc3)cc2-c2ccccc2)nc1C)=C\c1ccccc1 | > 100 µM | > 100 µM | > 100 µM |  | > 100 µM | > 100 µM | > 100 µM | 68.1 µM | > 100 µM | > 100 µM | > 100 µM | > 100 µM | > 100 µM | > 100 µM | > 100 µM | > 100 µM | > 100 µM
8 | CCOC(=O)/C(C=Nc1c(C)n(C)n(-c2ccccc2)c1=O)=C(/O)c1ccccc1 | > 100 µM | > 100 µM | > 100 µM | > 100 µM | > 100 µM | > 100 µM | > 100 µM | > 100 µM |  | > 100 µM | > 100 µM | > 100 µM | > 100 µM | > 100 µM |  |  | 
9 | CCCCOCn1c(=O)[nH]c(=O)c2ccccc21 | > 100 µM | > 100 µM | > 100 µM | > 100 µM |  | > 100 µM | > 100 µM |  | > 100 µM |  | > 100 µM | 55.5 µM | > 100 µM |  |  |  | 
10 | CC(=O)OCC1OC(n2c(C#N)cc(=O)[nH]c2=O)CC1OC(C)=O (stereo not drawn) | > 100 µM | > 100 µM | > 100 µM | > 100 µM | > 100 µM | > 100 µM | > 100 µM | > 100 µM | > 100 µM |  | > 100 µM | > 100 µM | > 100 µM | > 100 µM |  |  | 
11 | N#CC1(C#N)NC(c2cccnc2)C(C#N)(C#N)NC1c1cccnc1 (stereo not drawn) | > 100 µM |  | > 100 µM | > 100 µM | > 100 µM | > 100 µM | > 100 µM | > 100 µM | > 100 µM | > 100 µM | > 100 µM |  | > 100 µM |  |  |  | 
12 | CCc1n[nH]c(=O)n1N1C(=O)CCC1=O | > 100 µM | > 100 µM | > 100 µM | > 100 µM | > 100 µM | > 100 µM | > 100 µM |  | > 100 µM | > 100 µM | > 100 µM | > 100 µM | > 100 µM | > 100 µM |  |  | 
13 | O=C(/C=C/c1ccc(O)c(O)c1)OCc1ccccc1 | 50.5 µM | 40.7 µM |  | 70.9 µM | 72.4 µM | 13.5 µM | > 100 µM | 60.3 µM |  | 32.2 µM | 82 µM | 97.6 µM | 67.3 µM | 7.77 µM |  |  | 
14 | COc1ccc(C2=Nn3c(nc4sc(C)c(C)c4c3=O)SC2)cc1 | > 100 µM | > 100 µM | > 100 µM | > 100 µM | > 100 µM | > 100 µM | > 100 µM | > 100 µM | > 100 µM | > 100 µM |  |  | > 100 µM | > 100 µM |  |  | 
15 | NC(=O)NC(=O)CCC(NS(=O)(=O)c1ccccc1)C(=O)NC(N)=O (stereo not drawn) | > 100 µM | > 100 µM | > 100 µM | > 100 µM | > 100 µM | > 100 µM | > 100 µM | > 100 µM | > 100 µM |  | > 100 µM | > 100 µM | > 100 µM | > 100 µM |  |  | 
16 | C=CCOc1ccc(/C(N=Nc2ccc(C)cc2)=N/NC(=O)c2ccccc2)cc1OC | 72 µM | > 100 µM | 41.1 µM | 66.1 µM | > 100 µM | 62.1 µM | 58.4 µM | 69.1 µM | 91.4 µM |  | 73.3 µM | > 100 µM | > 100 µM | 49.6 µM |  |  | 
17 | CCCc1cc(=O)oc2c(C=O)c(O)cc(O)c12 | 40.6 µM | 86.7 µM | 51.4 µM | 40.8 µM | 59.7 µM | > 100 µM |  | 48 µM | 62 µM | 66.5 µM | 48.4 µM | 87.1 µM | 75.8 µM | 41.9 µM |  |  | 
18 | Cc1cc2nc3c(C#N)c(-c4ccccc4)/c(=C\Nc4ccc(Cl)cc4)c(=O)n3c2cc1C | > 100 µM | > 100 µM | > 100 µM | > 100 µM | > 100 µM |  | > 100 µM | > 100 µM | > 100 µM | > 100 µM | > 100 µM | > 100 µM | > 100 µM | > 100 µM |  |  | 

Reference: PubChem BioAssay (NCI)
